Our source for the viability, T/C and IC50 values is PubChem BioAssay AID2060485 (Molecular Pharmacology Branch, DTP, NCI, 2025).

Where “and” joins values, the source holds several entries; their conditions need not be identical. Equal entries are not always repeated. Where only a bound is given, the exact number is not on record here.

This test concerns A375 multi-cell spheroids with HUVEC/MSC, viability. As to the kind of experiment: Anticancer human tumor A375 cell line growth inhibition [GQUAD].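 On all read-outs here: spheroids exposed to compounds for seven days before readout.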 The conditions noted are these: for viability, T/C: stronger effect = lower value. The source says: DNA G-quadruplex Stabilizer Agents in Combinations in Complex Spheroids
A high-throughput screen of multi-cell type tumor spheroids was designed to identify active combinations of DNA G-quadruplex stabilizer agents and targeted small molecules. Complex spheroids include a stromal component modeled by human endothelial cells (HUVEC) and fibroblasts modeled by human mesenchymal stem cells (MSCs). The concentration ranges selected for each drug and investigational agent were based upon clinically achievable concentrations if the clinical Cmax of the agent was known.
Compounds. The drugs and investigational agents: pidnarulex (CX-5461; NSC782164), APTO-253 (NSC789042), BRACO-19 (NSC847499), peposertib (NSC802822), ceralasertib (NSC780249), elimusertib (NSC800525), camonsertib (NSC841442), AZD-1390 (NSC803789), olaparib (NSC753686), talazoparib (NSC767125), ART-558 (NSC835418), sotorasib (NSC818433), MRTX-1133 (NSC836407), SN-38 (NSC673596), topotecan (NSC609699), etoposide (NSC141540), doxorubicin (NSC123127), gemcitabine (NSC613327), 5-fluorouracil (NSC19893), paclitaxel (NSC125973), vemurafenib (NSC761431), panobinostat (NSC761190), R-306465 (JNJ-16241199; NSC773264), adavosertib (NSC754352), TP-3654 (NSC805149), carboplatin (NSC241240), KSQ-4279 (NSC840948), and staurosporine (NSC755774) were obtained from the National Cancer Institute (NCI) Developmental Therapeutics Program Chemical Repository (34). The FDA-approved anticancer drug set is available from the NCI Developmental Therapeutics Program. […] The stock solutions were prepared in dimethyl sulfoxide (DMSO, Sigma-Aldrich, St. Louis, MO, cat. D2650) at 800-fold the tested concentration and stored at -70 degrees C prior to their use. All drugs and investigational agents were tested over a range starting from a high concentration at or near the clinical Cmax and decreasing in half-log increments. If the clinical Cmax for an agent had not been determined, the highest concentration tested was 10 microM.
2.3 Cell Culture. All cells were maintained in an incubator at 37 degrees C and 5% CO2 with 95% humidity. The PDC lines were cultured according to standard operating procedures established by the NCI PDMR. All PDCs were thawed and cultured in Matrigel-coated flasks prepared with a working solution of 1X Ham's F-12 nutrient mix, without supplementation (Invitrogen, cat. 11765054), 100 U/mL penicillin-streptomycin (Invitrogen, cat. 15140122), and 2.5% Matrigel (Corning Inc., cat. 354248) for the first three passages. The 857933-349-R-J2-PDC line was cultured in 6C/Colon 1B media, which includes advanced DMEM/F-12 (Thermo Fisher Scientific, cat. 12634028), 10 mM HEPES (Thermo Fisher Scientific, cat. 15630080), 1X GlutaMAX supplement (Thermo Fisher Scientific, cat. 35050061), 0.1 mg/mL primocin (InvivoGen, cat. ant-pm-2), 10% defined fetal bovine serum, heat inactivated (HyClone Laboratories Inc., cat. SH30070.03HI), 50% L-WRN conditioned media (ATCC, cat. CRL-3276), 1.25 mM N-Acetyl-L-cysteine (Sigma-Aldrich, cat. A9165), 10 mM nicotinamide (Sigma-Aldrich, cat. N0636), 1X B-27 supplement (Thermo Fisher Scientific, cat. 17504044), 1X N-2 supplement (Thermo Fisher Scientific, cat. 17502048), 10 microM Y-27632 dihydrochloride (Tocris Bioscience, cat. 1254), and 50 ng/mL human EGF recombinant protein (Thermo Fisher Scientific, cat. PHG0311). The 485176-168-R4-J1-PDC line was cultured in Panc media, which includes all 6C/Colon 1B media components plus 100 ng/mL human FGF-10 (Thermo Fisher Scientific, cat. 100-26), 500 nM SB-431542 (Selleckchem, cat. S1067), and gastrin (Tocris, cat. 3006).
[…]

In the case of `CCCS(=O)(=O)Nc1ccc(F)c(C(=O)c2c[nH]c3ncc(-c4ccc(Cl)cc4)cc23)c1F`, the viability, T/C runs as follows: (compound 0.0316 µM) 41.8% and 44% and 40.9%; (compound 0.1 µM) 16.1% and 14.9% and 17.2%; (compound 0.316 µM) 8.83% and 9.93% and 11.1%; (compound 1 µM) 6.9% and 7.11% and 7.65%; (compound 3.16 µM) 5.54% and 6.38% and 6.53%; (compound 10 µM) 5.63% and 5.69% and 7.54%. Besides, for the setting “curve of compound”, the IC50 is less than 31.6 nM.
For `O=C(NO)c1cnc(N2CCN(S(=O)(=O)c3ccc4ccccc4c3)CC2)nc1`, the viability, T/C reads like this: (compound 0.0316 µM) 107% and 124% and 114%; (compound 0.1 µM) 109% and 110% and 112%; (compound 0.316 µM) 5.8% and 7.04% and 12.4%; (compound 1 µM) 0.3% and 0.23%; (compound 3.16 µM) 0.3% and 0.39% and 0.16%; (compound 10 µM) 0.32% and 0.35% and 0.19%. The IC50 (curve of compound) was 192 nM and 195 nM and 205 nM.
As for `CC1COCCN1c1cc(-c2ccnn2C)c2ccnc(-c3ccn[nH]3)c2n1` (stereo not drawn), the viability, T/C reads like this: (compound 0.0316 µM) 106% and 103% and 105%; (compound 0.1 µM) 87.6% and 77% and 93.2%; (compound 0.316 µM) 75.4% and 49.7% and 69.2%; (compound 1 µM) 38.9% and 25% and 31.8%; (compound 3.16 µM) 13.2% and 9.89% and 11.6%; (compound 10 µM) 11.8% and 10.5% and 11.2%. For the same molecule, the IC50 (curve of compound) was 677 nM and 294 nM and 561 nM.
Turning to `C#Cc1c(F)ccc2cc(O)cc(-c3ncc4c(N5CC6CCC(C5)N6)nc(OCC56CCCN5CC(F)C6)nc4c3F)c12` (stereo not drawn), the viability, T/C (compound 0.0316 µM) was 103% and 97.8% and 101%; the viability, T/C (compound 0.1 µM) is 96% and 106% and 96.2%; the viability, T/C (compound 0.316 µM) was 97.2% and 96.2% and 108%; the viability, T/C (compound 1 µM) is 101% and 117% (2×); the viability, T/C (compound 3.16 µM) is 113% and 106% and 101%; the viability, T/C (compound 10 µM) was 90.4% and 98.4% and 113%. In addition, the IC50 (curve of compound) was greater than 10000 nM.
As for `COc1ccc([C@@H](O)c2cc(-c3ncnc4cc(N5CCOCC5)ccc34)c(F)cc2Cl)nn1`, the viability, T/C is 97.1% and 112% (compound 0.0316 µM); 107% and 117% (compound 0.1 µM); 102% and 98.3% (compound 0.316 µM); 101% and 103% (compound 1 µM); 100% and 91% (compound 3.16 µM); 83% and 67.6% (compound 10 µM). Also, under “curve of compound”, the IC50 was greater than 10000 nM.
`Cc1[nH]c2ccc(F)cc2c1-c1nc2c3cccnc3c3ncccc3c2[nH]1`: the viability, T/C by setting is: (compound 0.0316 µM) 99.2% [middle of 12 runs]; (compound 0.1 µM) 99.6% [middle of 12 runs]; (compound 0.316 µM) 103% [middle of 12 runs]; (compound 1 µM) 102% [middle of 12 runs]; (compound 10 µM) 100% [middle of 12 runs]. The IC50 is, setting by setting: (compound alone, run of 03/18/2024) greater than 10000 nM; (compound alone, run of 03/26/2024) greater than 10000 nM.
As to `CC(C)(O)C1CCC(Nc2ccc3ncc(-c4cccc(C(F)(F)F)c4)n3n2)CC1` (stereo not drawn), the viability, T/C (compound 0.0316 µM) is 104% and 93.2% and 105%; the viability, T/C (compound 0.1 µM) is 105% and 99.9% and 95.9%; the viability, T/C (compound 0.316 µM) is 99.1% and 95.6% and 91.5%; the viability, T/C (compound 1 µM) is 97.7% and 95.2% and 105%; the viability, T/C (compound 3.16 µM) was 90.2% and 83.5% and 92%; the viability, T/C (compound 10 µM) was 87.5% and 88% and 97.8%. The IC50 (curve of compound) is greater than 10000 nM.
Consider `C=CC(=O)N1CCN(c2nc(=O)n(-c3c(C)ccnc3C(C)C)c3nc(-c4c(O)cccc4F)c(F)cc23)C(C)C1` (stereo not drawn), for which the viability, T/C was 94.3% and 100% and 93.8% (compound 0.0316 µM); 105% and 91.8% and 94.4% (compound 0.1 µM); 95.2% and 94.2% and 99% (compound 0.316 µM); 101% and 90.2% and 99.8% (compound 1 µM); 109% and 99.3% and 126% (compound 3.16 µM); 101% and 119% and 111% (compound 10 µM). In addition, where the note is “curve of compound”, the IC50 is greater than 10000 nM.
Regarding `CCc1c2c(nc3ccc(O)cc13)-c1cc3c(c(=O)n1C2)COC(=O)[C@]3(O)CC`, the viability, T/C reads like this: (compound 0.000999 µM) 45.1% and 41.4% and 38.3%; (compound 0.00316 µM) 17.9% and 15.3% and 17.3%; (compound 0.00999 µM) 15.6% and 10.1% and 12.2%; (compound 0.0316 µM) 18% and 14.4% and 15%; (compound 0.0999 µM) 4.97% and 4.55% and 5.97%; (compound 0.316 µM) 0.56% and 1.25% and 0.77%. Further, under “curve of compound”, the IC50 was less than 0.999 nM.

One may read the viability, T/C as the ratio of treated to control. In general, IC50 refers to the midpoint of a concentration-inhibition curve.
